We go through 10 molecules from ChEMBL document CHEMBL1201862, “PubChem BioAssay data set” (2004).

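Test compounds were applied to cells in 96-well plates for 48 hours at 5 doses. GI50 is the concentration that inhibits growth by half.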 The source made the active and inactive calls. Rule as the data show it: active = GI50 up to about 1.1 µM and inactive = higher. *1 amine or outer side, *2 acyl side, *3 side chain or, on linkers, in order; H or OH if unused. Where a SMILES comes first, the peptide text is derived from it. Bridges are numbered along the chain shown (N, C = ends). [ ]: non-standard residue; d: D form. ξ: configuration not given here. X10 = CCC(C)C(N[*:1])C(O)CC(=O)O[C@H](C(=O)C(C)C(=O)[*:2])C(C)C; NMeY = CN[C@@H](Cc1ccc(O)cc1)C(=O)O; ξNMeL = CNC(CC(C)C)C(=O)O; ξT = CC(O)C(N)C(=O)O

Test systems include OVCAR-8; KM12; CAKI-1; UO-31; HCC 2998; SNB-19; DU-145; IGROV-1; SF-539; MDA-MB-435; 786-0; SF-268; SK-MEL-5; M14; EKVX; UACC-257; U-251; LOX IMVI; RPMI-8226.
Assay in all cases: inhibition of tumour cell growth, NCI panel, 48 h

On to `Cc1cc(C)nc(NS(=O)(=O)c2ccc(NNc3c4ccccc4nc4c(C(=O)Nc5ccc(S(=O)(=O)N=C(N)N)cc5)cccc34)cc2)n1`, for which the GI50 in the test on OVCAR-8 is 52.4 µM (inactive); in the test with KM12, 34.7 µM (inactive); in the test with CAKI-1, > 100 µM (inactive); in the test on UO-31, 27.7 µM (inactive); with HCC 2998 it was 39.3 µM (inactive); with SNB-19 it was 61.1 µM (inactive). For the same molecule, the GI50 with DU-145 is 65.8 µM (inactive); with IGROV-1, 53 µM (inactive); with SF-539, 67 µM (inactive); with MDA-MB-435 it was 39.1 µM (inactive); in the test with 786-0 it was 65.5 µM (inactive); in the test with SF-268, 45 µM (inactive). The GI50 with SK-MEL-5 is 53.1 µM (inactive); in the test on M14, 97.9 µM (inactive); in the test on EKVX it was 30.5 µM (inactive); in the test on UACC-257, > 100 µM (inactive); in the test on U-251, 25.4 µM (inactive); in the test on LOX IMVI it was 33.7 µM (inactive). Moreover, the GI50 with RPMI-8226 is 93.3 µM (inactive).
On to `CCNC(=S)NNC(=O)CSc1nc2ccc(I)cc2c(=O)n1Cc1ccccc1`, for which the GI50 is 22 µM (inactive) in the test on OVCAR-8; 8.77 µM (inactive) in the test on KM12; 0.374 µM (active) with CAKI-1; 0.0299 µM (active) in the test with UO-31; 17.6 µM (inactive) in the test on HCC 2998; > 87.5 µM (inactive) in the test on SNB-19. The GI50 with DU-145 was > 79.4 µM (inactive); in the test with IGROV-1 it was 14.6 µM (inactive); in the test with SF-539, 45.8 µM (inactive); in the test on MDA-MB-435, 12.9 µM (inactive); with 786-0, 29.2 µM (inactive); in the test with SF-268, 31.9 µM (inactive). Moreover, the GI50 with SK-MEL-5 was 8.65 µM (inactive); in the test with M14 it was 38.4 µM (inactive); with EKVX it was 15.8 µM (inactive); in the test with UACC-257, 17.7 µM (inactive); in the test with U-251, 43.4 µM (inactive); in the test on LOX IMVI it was 34.9 µM (inactive). The GI50 in the test on RPMI-8226 was 14.8 µM (inactive).
Take `CCC(C)C1NC(=O)C(NC(=O)C(CC(C)C)N(C)C(=O)[C@@H]2CCCN2)C(C)OC(=O)[C@H](Cc2ccc(OC)cc2)N(C)C(=O)[C@@H]2CCCN2C(=O)[C@H](CC(C)C)NC(=O)C(C)C(=O)[C@H](C(C)C)OC(=O)CC1O` (stereo not given in full) (H-P[ξNMeL][ξT][X10]LP[NMeY](Me); ester 3-C): the GI50 is 0.00221 µM (active) in the test with OVCAR-8; < 0.01 µM (active) in the test on KM12; 0.00869 µM (active) in the test with CAKI-1; 0.0214 µM (active) in the test with UO-31; 0.000438 µM (active) in the test with HCC 2998; 0.000721 µM (active) in the test on SNB-19. Moreover, the GI50 in the test on DU-145 was 0.00227 µM (active); in the test on IGROV-1, 0.000288 µM (active); with SF-539 it was 0.000322 µM (active); in the test with MDA-MB-435 it was 0.00047 µM (active); with 786-0, 0.000564 µM (active); in the test with SF-268, 0.000267 µM (active). The GI50 is < 0.0001 µM (active) with SK-MEL-5; 0.000222 µM (active) with M14; < 0.01 µM (active) in the test with EKVX; 0.000815 µM (active) in the test on UACC-257; < 0.0001 µM (active) with U-251; < 0.0001 µM (active) in the test on LOX IMVI. Also, the GI50 with RPMI-8226 was 0.00116 µM (active).
With `Cc1cc(=O)oc2c(C)c3oc(CBr)c(Br)c3cc12`, the GI50 was 24.7 µM (inactive) in the test with OVCAR-8; 26.8 µM (inactive) with KM12; 17.2 µM (inactive) in the test with CAKI-1; 18.6 µM (inactive) with UO-31; 19.3 µM (inactive) in the test with HCC 2998; 31.6 µM (inactive) in the test on SNB-19. Also, the GI50 with DU-145 was 42.9 µM (inactive); in the test on IGROV-1 it was 17.7 µM (inactive); in the test with SF-539, 37.6 µM (inactive); in the test with MDA-MB-435 it was 43.3 µM (inactive); with 786-0, 14.4 µM (inactive); with SF-268, 25.6 µM (inactive). In addition, the GI50 is 18.2 µM (inactive) in the test with SK-MEL-5; 22 µM (inactive) in the test on M14; 92.3 µM (inactive) in the test with EKVX; 54.5 µM (inactive) with UACC-257; 31.1 µM (inactive) with U-251; 12.6 µM (inactive) in the test with LOX IMVI. Further, the GI50 in the test on RPMI-8226 is 16.3 µM (inactive).
As to `COc1cccc(C(=O)N[C@@H]2[C@H](O)[C@@H](CO)O[C@H]2n2cnc3c(N)ncnc32)c1`, the GI50 in the test with OVCAR-8, with KM12, in the test with CAKI-1, in the test on UO-31, with HCC 2998 and with SNB-19 was > 100 µM (inactive) in each case. In addition, the GI50 in the test with DU-145, with IGROV-1, in the test on SF-539, in the test on MDA-MB-435, with 786-0 and with SF-268 was > 100 µM (inactive) each time. Further, the GI50 with SK-MEL-5, in the test with M14, in the test with EKVX, with UACC-257, in the test on U-251 and in the test on LOX IMVI was > 100 µM (inactive) throughout. Moreover, the GI50 in the test with RPMI-8226 is > 100 µM (inactive).
As for `Cc1c2cccc-2ccc2c1[nH]c1ccc(Br)cc12`, the GI50 with OVCAR-8 is 7.36 µM (inactive); in the test on KM12, 2.47 µM (inactive); in the test with CAKI-1, 11.8 µM (inactive); in the test on UO-31, 4.65 µM (inactive); with HCC 2998, 15.2 µM (inactive); in the test with SNB-19 it was 7.64 µM (inactive). Moreover, the GI50 in the test on DU-145 was 10.9 µM (inactive); with IGROV-1, 2.56 µM (inactive); in the test on SF-539, 4.81 µM (inactive); with MDA-MB-435 it was 4.7 µM (inactive); in the test on 786-0, 14.3 µM (inactive); in the test on SF-268, 4.6 µM (inactive). Besides, the GI50 in the test on SK-MEL-5 is 3.9 µM (inactive); in the test with M14 it was 6.12 µM (inactive); with EKVX, 1.78 µM (inactive); in the test with UACC-257 it was 24.2 µM (inactive); with U-251 it was 3.21 µM (inactive); in the test on LOX IMVI it was 4.44 µM (inactive). For the same molecule, the GI50 in the test on RPMI-8226 was 3.15 µM (inactive).
Consider `CCOC(=O)c1c2c(n(-c3ccc(C)cc3)c1C)-c1ccccc1C(=O)C2(C(=O)OCC)C(=O)OCC`, for which the GI50 is 29.2 µM (inactive) in the test on OVCAR-8; 38.5 µM (inactive) with KM12; 39.9 µM (inactive) in the test on CAKI-1; 23.1 µM (inactive) in the test with UO-31; 31.4 µM (inactive) with HCC 2998; > 92.7 µM (inactive) in the test with SNB-19. Besides, the GI50 with DU-145 is 30.4 µM (inactive); with IGROV-1 it was 30.3 µM (inactive); with SF-539, 35.8 µM (inactive); with MDA-MB-435, 29.1 µM (inactive); in the test on 786-0, 50.6 µM (inactive); with SF-268, 34.3 µM (inactive). For the same molecule, the GI50 is 19.2 µM (inactive) with SK-MEL-5; 60.3 µM (inactive) in the test with M14; 32.4 µM (inactive) in the test on EKVX; 33.8 µM (inactive) in the test with UACC-257; 70.1 µM (inactive) with U-251; 33.8 µM (inactive) in the test on LOX IMVI. Further, the GI50 in the test on RPMI-8226 is 14 µM (inactive).
Consider `OC(C1CCCCCCCCCC1)C(O)C1CCCCCCCCCC1` (stereo not given), for which the GI50 in the test on OVCAR-8, in the test on KM12, with CAKI-1, in the test with UO-31, with HCC 2998 and with SNB-19 was > 100 µM (inactive) each time. Besides, the GI50 in the test with DU-145, in the test on IGROV-1, in the test on SF-539, with MDA-MB-435, in the test with 786-0 and with SF-268 was > 100 µM (inactive) each time. In addition, the GI50 in the test on SK-MEL-5, in the test with M14, in the test on EKVX, in the test with UACC-257, with U-251 and with LOX IMVI was > 100 µM (inactive) each time. Further, the GI50 with RPMI-8226 was > 100 µM (inactive).
On to `Cc1ccsc1C(=S)Nc1ccc(Cl)c(/C=N/OC(C)C)c1`, for which the GI50 with OVCAR-8 was 44.3 µM (inactive); with KM12 it was 26.4 µM (inactive); with CAKI-1, 46.3 µM (inactive); in the test with UO-31, 21.1 µM (inactive); in the test with HCC 2998 it was 22.9 µM (inactive); with SNB-19, 44.5 µM (inactive). In addition, the GI50 is 92.5 µM (inactive) in the test on DU-145; 25.8 µM (inactive) with IGROV-1; > 100 µM (inactive) with SF-539; 49.3 µM (inactive) in the test with MDA-MB-435; 42.5 µM (inactive) in the test with 786-0; 86.3 µM (inactive) in the test on SF-268. In addition, the GI50 is 25.2 µM (inactive) in the test with SK-MEL-5; 37.7 µM (inactive) in the test on M14; 22.9 µM (inactive) with EKVX; 47.9 µM (inactive) with UACC-257; 36.6 µM (inactive) in the test with U-251; 29.8 µM (inactive) with LOX IMVI. The GI50 with RPMI-8226 is 14.7 µM (inactive).
Consider `COc1ccc(CCN2CCN(CCCc3ccccc3)CC2)cc1`, for which the GI50 was > 100 µM (inactive) in the test with OVCAR-8; 72.6 µM (inactive) in the test on KM12; > 100 µM (inactive) in the test with CAKI-1; 55.6 µM (inactive) with UO-31; 69.3 µM (inactive) in the test on HCC 2998; > 100 µM (inactive) in the test with SNB-19. For the same molecule, the GI50 in the test with DU-145 was > 100 µM (inactive); with IGROV-1 it was 96.8 µM (inactive); in the test with SF-539, > 100 µM (inactive); in the test on MDA-MB-435 it was > 100 µM (inactive); in the test on 786-0, > 100 µM (inactive); in the test with SF-268 it was > 100 µM (inactive). Besides, the GI50 in the test on SK-MEL-5 was 23.2 µM (inactive); in the test on M14 it was 86.9 µM (inactive); in the test with EKVX, > 100 µM (inactive); with UACC-257 it was 77.3 µM (inactive); in the test with U-251 it was > 100 µM (inactive); in the test on LOX IMVI, > 100 µM (inactive). Besides, the GI50 with RPMI-8226 was > 100 µM (inactive).
